Reference: patent US20250009903A1, “PEPTIDE-BINDING HYBRID LIPOSOME EXOSOME, PEPTIDE-BINDING EXOSOME, COMPOSITION CONTAINING SAME, AND METHOD OF FORMING SAME” (SEKISUI CHEMICAL CO., LTD., priority 2021, published 2025)

Tested on: HepG2 cells
Assay: Influence of peptide-binding MSC-derived / HEK293 cell-derived exosome solutions on cell growth (Experimental Example 5)
Format: cell-based
Description: After the sample medium was added, culturing was performed for 48 hours, and using the 8-channel pipette, washing was performed twice with 100 μl of a serum-free DMEM medium (H-Glc). A 10% FBS (exosome-depleted) DMEM (H-Glc) medium was added at 100 μl/well. In addition, after culturing was performed for 48 hours, Premix WST-1 Cell Proliferation Assay System (reagent for cell growth measurement, commercially available from Takara Bio Inc.) was added at 10 μl/well, and color development was performed by performing incubation for 2 hours under […] conditions. The absorbance at 440 nm was measured using “Synergy HTX Multimode Plate Reader” (culture plate absorptiometer, commercially available from Bio Tek Instruments, Inc.). The average absorbance of the control group (no liposome added) was set as 100, the percentage of the absorbance of each well was calculated and used as an index of the degree of cell growth. Here, the Tukey Kramer method was used for the multiple comparison test.
A solution of a peptide having an amino acid sequence shown in SEQ ID NO: 1 was added to a 20 mM borate buffer solution (pH 8.6). In addition, Lipofectamine (registered trademark) (solution for transfection) was dissolved in a serum-free DMEM to prepare a 10% Lipofectamine solution. […]

WEAALAEALAEALAEHLAEALAEALEALAA (Amino acid sequence derived from a protein fragment) [peptide]
% with respect to control group (degree of cell growth) (Table 6A, Adipo-MSC-derived exosome 40 μg/ml, peptide SEQ ID NO: 1, DOX liposome 40 μM, n=6): 147.2% | % with respect to control group (degree of cell growth) (Table 6B, HEK293 cell-derived exosome 40 μg/ml, peptide SEQ ID No. 1, DOX liposome 40 μM): 141.3%
